Data from patent EP4711369A1, “1H-[1,2,3]TRIAZOLO[4,5-H]QUINAZOLINE COMPOUNDS AS PROTEIN KINASE INHIBITORS” (Chengdu Cynogen Bio-Pharmaceutical Technology Co., Ltd., priority 2023, dated 2024).

Columns and labels:
[1] = target: CDK2/cyclin E (Homo sapiens, UniProt P24941); assay: Assay of kinase activity (ADP-Glo); type: biochemical; details: kinase inhibitory activity, read-out: CDK2/E1 IC50
Method in brief: (§1)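 Kinase preincubated 10 min with compound in 50 mM Hepes, 10 mM MgCl2, 0.01% Brij35, 2 mM DTT, then substrate/ATP added for 60 min at 25 °C. ADP formed measured by ADP-Glo luminescence; IC50 by nonlinear concentration-response fitting.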

[2] = target: CDK4/cyclin D1 (Homo sapiens, UniProt P11802); assay: Assay of kinase activity (ADP-Glo); type: biochemical; details: kinase inhibitory activity
Sequence of CDK4/cyclin D1 (P11802 whole entry, species assumed): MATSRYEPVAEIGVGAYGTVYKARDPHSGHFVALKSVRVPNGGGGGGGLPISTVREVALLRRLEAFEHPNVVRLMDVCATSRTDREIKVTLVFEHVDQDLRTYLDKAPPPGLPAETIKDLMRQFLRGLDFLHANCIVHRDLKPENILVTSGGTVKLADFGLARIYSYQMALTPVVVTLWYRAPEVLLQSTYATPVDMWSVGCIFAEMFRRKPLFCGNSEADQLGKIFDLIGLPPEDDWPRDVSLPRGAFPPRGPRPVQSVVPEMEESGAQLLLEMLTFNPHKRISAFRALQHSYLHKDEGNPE
Sequence of CDK4/cyclin D1 (P24385 whole entry partner, species assumed): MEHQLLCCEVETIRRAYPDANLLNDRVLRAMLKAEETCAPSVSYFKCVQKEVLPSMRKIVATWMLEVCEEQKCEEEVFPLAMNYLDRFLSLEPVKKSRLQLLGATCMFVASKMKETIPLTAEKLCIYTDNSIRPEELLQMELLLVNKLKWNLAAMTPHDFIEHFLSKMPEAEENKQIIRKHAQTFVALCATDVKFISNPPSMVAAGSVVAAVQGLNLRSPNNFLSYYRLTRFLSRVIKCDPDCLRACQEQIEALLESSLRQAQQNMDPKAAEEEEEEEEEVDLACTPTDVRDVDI
Method in brief: as §1

[3] = tested on: human acute myeloid leukemia MV-4-11 cells; assay: Assay of cell proliferation (CellTiter-Glo); type: cell-based; details: MV4-11, 144 h, 6 days, read-out: MV-4-11 IC50 of cell proliferation inhibitory activity
Method in brief: (§2)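 Cells seeded per line at growth-adapted densities, treated 6 days at 37 °C/5% CO2 with nine 3-fold dilutions (10 µM to 0.1 nM final, 0.5% DMSO). Viability by CellTiter-Glo luminescence; IC50 from four-parameter fit.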

[4] = tested on: human breast cancer HCC1806 cells; assay: Assay of cell proliferation (CellTiter-Glo); type: cell-based; details: Homo sapiens, 144 h, 6 days, read-out: HCC1806 IC50 of cell proliferation inhibitory activity
Method in brief: as §2

[5] = tested on: human breast cancer MCF-7 cells; assay: Assay of cell proliferation (CellTiter-Glo); type: cell-based; details: 144 h, MCF7 cells, 6 days, read-out: MCF7 IC50 of cell proliferation inhibitory activity
Method in brief: as §2

[6] = tested on: human colon cancer HCT-116 cells; assay: Assay of cell proliferation (CellTiter-Glo); type: cell-based; details: 144 h, 6 days, read-out: HCT-116 IC50 of cell proliferation inhibitory activity
Method in brief: as §2

[7] = tested on: human gastric cancer MKN1 cells; assay: Assay of cell proliferation (CellTiter-Glo); type: cell-based; details: Homo sapiens, MKN-1, 144 h; MNK1, 6 days; read-out: MKN1 IC50 of cell proliferation inhibitory activity
Method in brief: as §2

[8] = tested on: Human ovarian cancer OVCAR-3 cells; assay: OVCAR-3 tumor model; type: in vivo; details: female NOD-SCID mice, p.o. 5, 10 and 15 mg/kg twice daily, 22 days, Fig. 3
Experimental: Human ovarian cancer OVCAR-3 cells were cultured in RPMI 1640 medium containing 20% FBS at 37 °C and 5% CO2 in an incubator. Matrigel was mixed with serum-free RPMI 1640 medium at a ratio of 1:1, and then the mixture was used to resuspend the OVCAR-3 cancer cells at 2 × 10^7 cells/0.2 ml. Then, the cells were inoculated subcutaneously into the right rib area of female NOD-SCID mice. When the volume of tumors reached approximately 100-150 mm^3, the mice were randomly divided into groups for treatment, with six animals per group. The compound of example I-10 was prepared in a 20% aqueous solution of hydroxypropyl-gamma-cyclodextrin containing an equivalent amount of hydrochloric acid, and administered by oral gavage (p.o.) at dosages of 5, 10, and 15 (mg/kg) twice daily, 8 hours apart, for a total of 22 days. The PF06873600 treatment group was used as a positive control, and the untreated group was given solvent by oral gavage. The tumor volume was measured twice a week using a vernier caliper by measuring the long and short diameters of a tumor. The formula for calculating a tumor volume was: volume (mm^3) = (long diameter (mm) × short diameter (mm) × short diameter (mm)/2. The mice were weighed daily.
The therapeutic effect of a drug was evaluated using the tumor growth inhibition (TGI%).

CC(C)n1nnc2ccc3cnc(Nc4ccc(C(=O)N5CC[C@H](N(C)C)C5)cc4)nc3c21 [Example I-10, (S)-(3-(Dimethylamino)pyrrolidin-1-yl)(4-((1-isopropyl-1H-[1,2,3]triazolo[4,5-H]quinazolin-8-yl)amino)phenyl)metha none]
IC50 [1]: 0.1 nM
IC50 [2]: 0.6 nM
IC50 [3]: 4 nM
IC50 [4]: 22 nM
IC50 [5]: 11 nM
IC50 [6]: 11 nM
IC50 [7]: 15 nM
growth inhibitory effect on the OVCAR-3 tumor model (TGI%) [8]: dose-dependent relationship
